Drawing on patent US20240228463A1, “SODIUM CHANNEL INHIBITORS AND METHODS OF DESIGNING SAME” (Genentech, Inc., priority 2021, published 2024), this text covers IC50 for 37 molecules.

For one test, the target named is T1, hNaV1.7 (Homo sapiens, UniProt Q15858).
T1 construct: expressed in transfected cells
T1 sequence (Q15858 1-1977 isoform Q15858-3): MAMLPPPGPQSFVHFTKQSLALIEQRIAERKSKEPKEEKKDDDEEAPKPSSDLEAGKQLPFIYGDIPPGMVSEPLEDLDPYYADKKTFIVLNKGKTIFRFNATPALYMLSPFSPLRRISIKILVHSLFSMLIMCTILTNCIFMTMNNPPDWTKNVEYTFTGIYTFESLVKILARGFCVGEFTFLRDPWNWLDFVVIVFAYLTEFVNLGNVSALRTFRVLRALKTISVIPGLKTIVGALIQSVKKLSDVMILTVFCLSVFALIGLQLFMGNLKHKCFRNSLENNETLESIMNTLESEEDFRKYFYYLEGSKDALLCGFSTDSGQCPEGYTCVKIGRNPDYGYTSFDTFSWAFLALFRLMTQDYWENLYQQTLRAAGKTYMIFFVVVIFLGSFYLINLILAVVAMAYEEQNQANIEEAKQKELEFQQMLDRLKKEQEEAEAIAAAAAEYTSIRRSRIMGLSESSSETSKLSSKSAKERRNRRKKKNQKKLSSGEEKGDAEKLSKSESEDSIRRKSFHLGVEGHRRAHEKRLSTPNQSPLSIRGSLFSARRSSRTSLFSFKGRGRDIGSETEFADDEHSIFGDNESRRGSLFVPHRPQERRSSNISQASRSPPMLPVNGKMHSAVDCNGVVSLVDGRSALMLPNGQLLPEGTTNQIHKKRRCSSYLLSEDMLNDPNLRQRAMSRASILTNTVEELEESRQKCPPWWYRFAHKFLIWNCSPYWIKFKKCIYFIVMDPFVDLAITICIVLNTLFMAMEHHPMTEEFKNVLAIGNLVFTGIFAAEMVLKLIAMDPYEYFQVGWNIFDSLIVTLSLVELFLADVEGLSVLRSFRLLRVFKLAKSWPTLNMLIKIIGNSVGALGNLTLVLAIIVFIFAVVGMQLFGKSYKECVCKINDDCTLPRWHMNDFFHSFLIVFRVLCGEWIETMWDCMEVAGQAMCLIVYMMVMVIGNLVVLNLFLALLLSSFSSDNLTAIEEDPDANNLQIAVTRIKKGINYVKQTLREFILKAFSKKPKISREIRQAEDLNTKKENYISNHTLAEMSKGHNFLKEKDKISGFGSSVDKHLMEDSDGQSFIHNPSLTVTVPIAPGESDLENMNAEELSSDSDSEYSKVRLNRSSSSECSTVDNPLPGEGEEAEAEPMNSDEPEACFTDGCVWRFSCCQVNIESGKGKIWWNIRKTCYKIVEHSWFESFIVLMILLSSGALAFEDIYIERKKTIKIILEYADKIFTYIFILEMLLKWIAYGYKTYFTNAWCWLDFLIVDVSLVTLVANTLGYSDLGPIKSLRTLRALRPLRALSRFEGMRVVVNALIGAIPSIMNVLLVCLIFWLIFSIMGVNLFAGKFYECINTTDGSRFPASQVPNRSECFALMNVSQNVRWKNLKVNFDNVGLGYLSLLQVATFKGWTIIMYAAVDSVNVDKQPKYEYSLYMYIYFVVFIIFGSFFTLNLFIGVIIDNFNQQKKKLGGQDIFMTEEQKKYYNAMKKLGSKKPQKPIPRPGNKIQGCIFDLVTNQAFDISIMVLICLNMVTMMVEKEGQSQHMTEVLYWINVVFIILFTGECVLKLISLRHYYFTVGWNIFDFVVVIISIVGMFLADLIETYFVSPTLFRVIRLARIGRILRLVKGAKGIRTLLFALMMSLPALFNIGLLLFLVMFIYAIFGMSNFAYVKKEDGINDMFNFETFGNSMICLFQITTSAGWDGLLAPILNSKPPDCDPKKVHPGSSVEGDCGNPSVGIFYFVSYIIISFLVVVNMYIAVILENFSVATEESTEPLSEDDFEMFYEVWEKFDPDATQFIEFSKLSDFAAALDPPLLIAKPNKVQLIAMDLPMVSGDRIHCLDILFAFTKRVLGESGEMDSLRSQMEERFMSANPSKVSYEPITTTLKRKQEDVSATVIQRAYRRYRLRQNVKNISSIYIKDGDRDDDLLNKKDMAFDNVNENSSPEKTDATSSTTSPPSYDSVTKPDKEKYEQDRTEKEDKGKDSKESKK
In words: Patch voltage clamp electrophysiology (EP), Syncropatch 384PE, Nav1.7 in CHO cells.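 Further: Nav1.7 stably expressed from cDNA in CHO cells, holding potential of −50 mV kept for the entire experiment.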 It is filed as cell-based. As to conditions: hNaV1.7 EP_SP, holding potential −50 mV, inhibition based on 7.5 min compound incubation. (The patch-clamp technique gives a direct electrical read-out from membranes.)
`COc1cc(-c2cccc(C(F)(F)F)c2)c(F)cc1N1C(=O)CO[C@H]2CN(S(=O)(=O)Nc3noc4ccc(C5CC5)cc34)CC[C@@H]21` (single isomer, unassigned) [Example 94] came in with an IC50 of 0.24 µM.

As to `O=C(NS(=O)(=O)N1CC[C@@H]2[C@@H](C1)OCC(=O)N2c1ccccc1)c1cc(Cl)c(OCC2CCCC2)cc1F` (single isomer, unassigned) [Example 44], the IC50 is 0.13 µM.

Staying with this test, now noted: holding potential −50 mV, inhibition based on 7.5 min compound incubation, read-out: hNaV1.7 EP_SP.
`CC(C)/C=C/c1cc2cnc(NS(=O)(=O)c3cc(Cl)c(N[C@H]4CCCC[C@@H]4N(C)C)cc3F)cc2n1C` [Example 102, 5-chloro-4-(((1S,2S)-2-(dimethylamino)cyclohexyl)amino)-2-fluoro-N-(1-methyl-2-((E)-3-methylbut-1-en-1-yl)-1H-pyrrolo[3,2-c]pyridin-6-yl)benzenesulfonamide]: the IC50 was 0.65 µM. On the same count and under the same terms, to `CC[C@@H](C)S(=O)(=O)NC(=O)c1cc(Cl)c(OCC2CCCC2)cc1F` (single isomer, unassigned) [Example 255] belongs 0.026 µM; to `CCc1cc(C(=O)NS(=O)(=O)N2CCC(OC3CN(C)C3)CC2)c(F)cc1OCC1CCCC1` [Example 3, 4-(cyclopentylmethoxy)-5-ethyl-2-fluoro-N-((4-((1-methylazetidin-3-yl)oxy)piperidin-1-yl)sulfonyl) benzamide], 0.022 µM. `O=C(NS(=O)(=O)c1ccc(OCC2CNC2)cc1)c1cc(Cl)c(OCC2CCCC2)cc1F` [Example 296, N-((4-(azetidin-3-ylmethoxy)phenyl)sulfonyl)-5-chloro-4-(cyclopentylmethoxy)-2-fluorobenzamide]: the IC50 is 0.28 µM. The same measure, in the same setting: the same measure for `NC[C@@H]1CN(S(=O)(=O)NC(=O)c2cc(Cl)c(OCC3CCCC3)cc2F)CCO1` (single isomer, unassigned) [Example 24, 2,2,2-trifluoroacetate]: 0.1 µM; for `CN(C)[C@H]1CCCC[C@@H]1Nc1ccc(S(=O)(=O)Nc2nc3ncc(Br)cc3s2)c(F)c1` [Example 95, N-(6-bromothiazolo[4,5-b]pyridin-2-yl)-4-(((1S,2S)-2-(dimethylamino)-cyclohexyl)amino)-2-fluorobenzenesulfonamide]: 0.17 µM; for `NC[C@@H]1CCN(S(=O)(=O)NC(=O)c2cc(Cl)c(OCC3CCCC3)cc2F)C1` [Example 232, (S)—N-((3-(aminomethyl)pyrrolidin-1-yl)sulfonyl)-5-chloro-4-(cyclopentylmethoxy)-2-fluorobenzamide 2,2,2-trifluoroacetate]: 0.88 µM. On the same count and under the same terms, to `O=C(NS(=O)(=O)N1CCC(OC2CNC2)CC1)c1cc(Cl)c(OCC2CCCC2)cc1F` [Example 46, N-((4-(azetidin-3-yloxy)piperidin-1-yl)sulfonyl)-5-chloro-4-(cyclopentyl-methoxy)-2-fluorobenzamide] belongs 0.25 µM. On to `O=C(NS(=O)(=O)N1C[C@@H]2CC[C@@H](C2)C1)c1cc(Cl)c(OCC2CCCC2)cc1F` [Example 230, N-(((1R,5S)-3-azabicyclo[3.2.1]octan-3-yl)sulfonyl)-5-chloro-4-(cyclopentylmethoxy)-2-fluorobenzamide], for which the IC50 was 0.063 µM. Take `O=C(NS(=O)(=O)N1CC(O[C@@H]2CCCNC2)C1)c1cc(Cl)c(OCC2CCCC2)cc1F` (single isomer, unassigned) [Example 48]: the IC50 came out at 0.86 µM.

As for `C[C@H]1Cc2cc(S(=O)(=O)NC(=O)c3cc(Cl)c(OCC4CCCC4)cc3F)ccc2O1` [Example 270, (S)-5-chloro-4-(cyclopentylmethoxy)-2-fluoro-N-((2-methyl-2,3-dihydrobenzofuran-5-yl)sulfonyl)benzamide], the IC50 turned out to be 0.38 µM. On the same count and under the same terms, to `O=C(NS(=O)(=O)N1CCC(OC2CCCNC2)CC1)c1cc(Cl)c(OCC2CCCC2)cc1F` (racemic) [Example 51, 5-chloro-4-(cyclopentylmethoxy)-2-fluoro-N-((4-(piperidin-3-yloxy)piperidin-1-yl)sulfonyl)benzamide 2,2,2-trifluoroacetate] belongs 0.068 µM; to `O=C(NS(=O)(=O)N1CC[C@@H](OC2CCNCC2)C1)c1cc(Cl)c(OCC2CCCC2)cc1F` (single isomer, unassigned) [Example 213], 0.42 µM; to `O=C(NS(=O)(=O)C1CCNC1)c1cc(Cl)c(OCC2CCCC2)cc1F` (stereo not shown) [Example 322, 5-chloro-4-(cyclopentylmethoxy)-2-fluoro-N-(pyrrolidin-3-ylsulfonyl)-benzamide], 0.51 µM. Take `Cn1cncc1COc1ccc(S(=O)(=O)NC(=O)c2cc(Cl)c(OCC3CCCC3)cc2F)cc1` [Example 316, 5-chloro-4-(cyclopentylmethoxy)-2-fluoro-N-((4-((1-methyl-1H-imidazol-5-yl)methoxy)phenyl)sulfonyl)benzamide]: the IC50 was 0.028 µM.

`O=C(NS(=O)(=O)c1ccc(OCc2ncccn2)cc1)c1cc(Cl)c(OCC2CCCC2)cc1F` [Example 295, 5-chloro-4-(cyclopentylmethoxy)-2-fluoro-N-((4-(pyrimidin-2-ylmethoxy)phenyl)sulfonyl)benzamide]: the IC50 amounted to 0.23 µM. Still for that read-out and setting: to `CCc1ccc(S(=O)(=O)NC(=O)c2cc(Cl)c(OCC3CCCC3)cc2F)cc1` [Example 243, 5-chloro-4-(cyclopentylmethoxy)-N-((4-ethylphenyl)sulfonyl)-2-fluorobenzamide] belongs 0.67 µM; to `CC[C@H](C)S(=O)(=O)NC(=O)c1cc(Cl)c(OCC2CCCC2)cc1F` (single isomer, unassigned) [Example 254], 0.014 µM. Still for that read-out and setting: to `CN(C)C1CCN(S(=O)(=O)NC(=O)c2cc(Cl)c(OCC3CCCC3)cc2F)CC1` [Example 329, 5-chloro-4-(cyclopentylmethoxy)-N-((4-(dimethylamino)piperidin-1-yl)sulfonyl)-2-fluorobenzamide] belongs 1 µM; to `Cc1ccc(COc2ccc(S(=O)(=O)NC(=O)c3cc(Cl)c(OCC4CCCC4)cc3F)cc2)cc1` [Example 313, 5-chloro-4-(cyclopentylmethoxy)-2-fluoro-N-((4-((4-methylbenzyl)oxy)phenyl)sulfonyl)benzamide], 0.14 µM. `C[C@@H]1CCc2ccccc2N1S(=O)(=O)NC(=O)c1cc(Cl)c(OCC2CCCC2)cc1F` (single isomer, unassigned) [Example 18]: the IC50 came to 0.024 µM. Same read-out and setting: the same measure for `O=C(NS(=O)(=O)c1ccc(OCc2ccccn2)cc1)c1cc(Cl)c(OCC2CCCC2)cc1F` [Example 301, 5-chloro-4-(cyclopentylmethoxy)-2-fluoro-N-((4-(pyridin-2-ylmethoxy)phenyl)sulfonyl)benzamide]: 0.039 µM; for `Cc1cc(C)cc(COc2ccc(S(=O)(=O)NC(=O)c3cc(Cl)c(OCC4CCCC4)cc3F)cc2)c1` [Example 303, 5-chloro-4-(cyclopentylmethoxy)-N-((4-((3,5-dimethyl-benzyl)oxy)phenyl)sulfonyl)-2-fluorobenzamide]: 0.26 µM. Consider `O=C(NS(=O)(=O)N1CCC(O[C@@H]2CCNC2)CC1)c1cc(C2CC2)c(OCC2CCCC2)cc1F` (single isomer, unassigned) [Example 29, 2,2,2-trifluoroacetate], for which the IC50 is 0.027 µM. As for `O=C(NS(=O)(=O)C1CC1)c1cc(Cl)c(OCC2CCCC2)cc1F` [Example 328, 5-chloro-4-(cyclopentylmethoxy)-N-(cyclopropylsulfonyl)-2-fluorobenzamide], the IC50 worked out at 0.01 µM. Same read-out and setting: the same measure for `O=C(NS(=O)(=O)CCOCc1ccccc1)c1cc(Cl)c(OCC2CCCC2)cc1F` [Example 274, N-((2-(benzyloxy)ethyl)sulfonyl)-5-chloro-4-(cyclopentylmethoxy)-2-fluorobenzamide]: 0.23 µM. The same measure, in the same setting: to `O=C(NS(=O)(=O)c1ccc(Oc2ccccc2)cc1)c1cc(Cl)c(OCC2CCCC2)cc1F` [Example 263, 5-chloro-4-(cyclopentylmethoxy)-2-fluoro-N-((4-phenoxyphenyl)sulfonyl)benzamide] belongs 0.22 µM. As to `COc1cc(F)c(C(=O)NS(=O)(=O)c2ccc(O[C@H]3CC[C@H](c4cccc(C(F)(F)F)c4)C[C@@H]3N(C)C)cc2F)cc1C1CC1` [Example 74, 5-cyclopropyl-N-((4-(((1S,2S,4S)-2-(dimethylamino)-4-(3-(trifluoro-methyl)phenyl)cyclohexyl)oxy)-2-fluorophenyl)sulfonyl)-2-fluoro-4-methoxybenzamide], the IC50 is 0.0055 µM.

As for `O=C(NS(=O)(=O)c1cnn(-c2cccc(C(F)(F)F)c2)c1)c1cc(Cl)c(OCC2CCCC2)cc1F` [Example 259, 5-chloro-4-(cyclopentylmethoxy)-2-fluoro-N-((1-(3-(trifluoromethyl)phenyl)-1H-pyrazol-4-yl)sulfonyl)benzamide], the IC50 was 0.79 µM. With `O=C(NS(=O)(=O)N1CCC(OC2CN(C3CC3)C2)CC1)c1cc(Cl)c(OCC2CCCC2)cc1F` [Example 12, 5-chloro-4-(cyclopentylmethoxy)-N-((4-((1-cyclopropylazetidin-3-yl)oxy)piperidin-1-yl)sulfonyl)-2-fluorobenzamide], the IC50 was 0.029 µM. Still for that read-out and setting: to `O=S(=O)(Nc1noc2cc(OCC3CCCC3)c(Cl)cc12)N1CCC(O[C@H]2CCNC2)CC1` (single isomer, unassigned) [Example 90, 2,2,2-trifluoroacetate] belongs 0.4 µM. Still for that read-out and setting: the same measure for `NC(=O)[C@@H]1Cc2cc(S(=O)(=O)NC(=O)c3cc(Cl)c(OCC4CCCC4)cc3F)ccc2O1` [Example 277, (S)-5-(N-(5-chloro-4-(cyclopentylmethoxy)-2-fluorobenzoyl)sulfamoyl)-2,3-dihydrobenzofuran-2-carboxamide]: 0.59 µM; for `C[C@@H]1CCCCN1S(=O)(=O)NC(=O)c1cc(Cl)c(OCC2CCCC2)cc1F` (single isomer, unassigned) [Example 225]: 0.01 µM; for `O=C(NS(=O)(=O)N1CCCC12CC2)c1cc(Cl)c(OCC2CCCC2)cc1F` [Example 229, N-((4-azaspiro[2.4]heptan-4-yl)sulfonyl)-5-chloro-4-(cyclopentylmethoxy)-2-fluorobenzamide]: 0.012 µM. On the same count and under the same terms, the same measure for `O=C(NS(=O)(=O)c1ccc(OCc2ccc(F)cc2)cc1)c1cc(Cl)c(OCC2CCCC2)cc1F` [Example 319, 5-chloro-4-(cyclopentylmethoxy)-2-fluoro-N-((4-((4-fluorobenzyl)oxy)phenyl)sulfonyl)benzamide]: 0.11 µM.
